Values of other authors as cited in patent US12528823B2, “Inhibitors of aldose reductase” (Applied Therapeutics, Inc., priority 2019, dated 2026).

Experiments:
[1] = test system: ischemic injury (cerebral infarction); conditions: normal mice; single oral dose either 30 mins before ischemia or 1 h 45 mins after ischemia
[2] = positive control; published/known value; octanol/pH 7.4 phosphate buffer

Structure (SMILES) | reduction in infarct volume resulting from ischemic injury [1] | Log D [2]
NC(=O)[C@@H]1C[C@]2(NC(=O)NC2=O)c2cc(F)ccc2O1 [Fidarestat] | 16-25% | –
C[C@]12CC[C@H]3[C@@H](CCC4=CC(=O)CC[C@@]43C)[C@@H]1CC[C@@H]2O [Testosterone] | – | 3.0-3.4
